Source: patent US6737383B1, “Herbicidal oxadiazolidines” (priority 1999, dated 2004)

Experiments:
[1] = system: corn; assay: Test B pre/postemergence corn; type: in vivo, Zea mays; details: for Corn plant response rating: scale of 0 to 10 where 0 is no effect and 10 is complete control
Outline: (§1)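 Test chemicals in a non-phytotoxic solvent mixture with surfactant were sprayed preemergence onto planted seeds and postemergence onto plants 2 to 18 cm tall (1- to 4-leaf stage). After twelve to sixteen days in a greenhouse, injury was visually rated against untreated controls from 0 (no effect) to 10 (complete control).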

[2] = system: morningglory; assay: Test B pre/postemergence morningglory; type: in vivo, Ipomoea hederacea; details: for Morningglory plant response rating: scale of 0 to 10 where 0 is no effect and 10 is complete control
Outline: as §1

[3] = system: purple nutsedge; assay: Test B pre/postemergence purple nutsedge; type: in vivo, Cyperus rotundus; details: for Nutsedge plant response rating: scale of 0 to 10 where 0 is no effect and 10 is complete control
Outline: as §1

[4] = system: blackgrass; assay: Test B pre/postemergence blackgrass; type: in vivo, Alopecurus myosuroides
Outline: as §1

[5] = system: smallflower flatsedge; assay: Test B flood test smallflower flatsedge; type: in vivo, Cyperus difformis
Outline: (§2)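 Each value is a visual injury score relative to controls, with 10 meaning complete control and 0 no effect. Evaluation took place twelve to sixteen days after the 2-leaf-stage plants were treated and kept in the greenhouse.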

[6] = system: sugar beet; assay: Test B pre/postemergence sugar beet; type: in vivo, Beta vulgaris; details: for Sugarbeets plant response rating: scale of 0 to 10 where 0 is no effect and 10 is complete control
Outline: as §1

[7] = system: bedstraw; assay: Test B pre/postemergence bedstraw; type: in vivo, Galium aparine; details: Preemergence; for Bedstraw plant response rating: scale of 0 to 10 where 0 is no effect and 10 is complete control
Outline: as §1

[8] = system: rice; assay: Test B flood test rice; type: in vivo, Oryza sativa
Outline: as §2

[9] = system: bamyardgrass; assay: Test B flood test barnyardgrass; type: in vivo, Echinochloa crus-galli
Outline: as §2

[10] = system: rape; assay: Test B pre/postemergence rape; type: in vivo, Brassica napus; details: for Rape plant response rating: scale of 0 to 10 where 0 is no effect and 10 is complete control
Outline: as §1

[11] = system: wheat; assay: Test B pre/postemergence wheat; type: in vivo, Triticum aestivum; details: for Wheat plant response rating: scale of 0 to 10 where 0 is no effect and 10 is complete control
Outline: as §1

[12] = system: crabgrass; assay: Test B pre/postemergence crabgrass; type: in vivo, Digitaria sanguinalis; details: for Crabgrass plant response rating: scale of 0 to 10 where 0 is no effect and 10 is complete control
Outline: as §1

[13] = system: pigweed; assay: Test B pre/postemergence pigweed; type: in vivo, Amaranthus retroflexus; details: for Redroot pigweed plant response rating: scale of 0 to 10 where 0 is no effect and 10 is complete control
Outline: as §1

[14] = system: giant foxtail; assay: Test B pre/postemergence giant foxtail; type: in vivo, Setaria faberii; details: for Giant foxtail plant response rating: scale of 0 to 10 where 0 is no effect and 10 is complete control
Outline: as §1

[15] = system: wild oat; assay: Test B pre/postemergence wild oat; type: in vivo, Avena fatua; details: for Wild oats plant response rating: scale of 0 to 10 where 0 is no effect and 10 is complete control
Outline: as §1

[16] = system: surinam grass; assay: Test B pre/postemergence surinam grass; type: in vivo, Brachiaria decumbens
Outline: as §1

[17] = Postemergence, Rate 125 g/ha, scale 0 to 10, 0 is no effect, 10 is complete control
[18] = Preemergence, Rate 62 g/ha, scale 0 to 10 (0 no effect, 10 complete control)
[19] = Rate 500 g/ha, Postemergence, scale 0 to 10, 0 no effect, 10 complete control
[20] = Preemergence, Rate 250 g/ha, scale of 0 to 10 where 0 is no effect and 10 is complete control
[21] = Preemergence, Rate 500 g/ha, scale of 0 to 10 where 0 is no effect and 10 is complete control
[22] = Rate 62 g/ha, Postemergence, scale of 0 to 10 where 0 is no effect and 10 is complete control
[23] = Rate 250 g/ha, Postemergence, scale of 0 to 10 where 0 is no effect and 10 is complete control
[24] = Postemergence (flood test), Rate 125 g/ha, scale 0 to 10, 0 is no effect, 10 is complete control
[25] = Rate 62 g/ha, Postemergence (flood test species), scale of 0 to 10 where 0 is no effect and 10 is complete control
[26] = Rate 62 g/ha, flood test species, Pre-emergence, visual evaluation after twelve to sixteen days
[27] = Rate 125 g/ha, Pre-emergence, flood test species, scale 0 to 10 where 0 is no effect and 10 is complete control
[28] = Rate 250 g/ha, Pre-emergence, flood-test species, scale 0 to 10, 0 is no effect, 10 is complete control
[29] = Rate 500 g/ha, listed under Postemergence (flood test species), scale 0 to 10, 0 no effect, 10 complete control
[30] = Rate 500 g/ha, Pre-emergence, flood test species, scale 0 to 10 (0 no effect, 10 complete control)

CCC(CC)n1c(=O)on(C(=O)N(c2ccccc2)C(C)C)c1=O [Compound 354]
2: Sugarbeets plant response rating ([6]; Preemergence, Rate 250 g/ha) | Plant response rating, Rice [8, 29] | Wheat plant response rating ([11]; Preemergence, Rate 500 g/ha) | Plant response rating, Crabgrass [12, 17] | Redroot pigweed plant response rating ([13]; Rate 62 g/ha, Postemergence) | Plant response rating, B. signalgrass [16, 19]
7: Plant response rating, Blackgrass [4, 23] | Plant response rating, Barnyardgrass ([9]; Rate 250 g/ha, Postemergence (flood test species), scale of 0 to 10 where 0 is no effect and 10 is complete control) | Redroot pigweed plant response rating (0 to 10 scale) ([13]; Preemergence, Rate 125 g/ha) | Plant response rating, Redroot pigweed [13, 19]
3: Corn plant response rating ([1]; Preemergence, Rate 250 g/ha) | Plant response rating, Blackgrass [4, 18] | Blackgrass plant response rating [4, 22] | Plant response rating, Sugarbeets [6, 19] | Plant response rating, Crabgrass [12, 19] | Plant response rating, Redroot pigweed [13, 17] | Plant response rating, Wild oats [15, 19]
8: Plant response rating, Morningglory [2, 19] | Blackgrass plant response rating [4, 20] | Plant response rating, S. Flatsedge [5, 24] | Wild oats plant response rating ([15]; Preemergence, Rate 500 g/ha)
10: Crabgrass plant response rating ([12]; Preemergence, Rate 500 g/ha) | Redroot pigweed plant response rating ([13]; Preemergence, Rate 250 g/ha) | Redroot pigweed plant response rating ([13]; Preemergence, Rate 500 g/ha) | Plant response rating, Giant foxtail [14, 18] | Giant foxtail plant response rating (0 to 10 scale) ([14]; Preemergence, Rate 125 g/ha) | Giant foxtail plant response rating ([14]; Preemergence, Rate 250 g/ha) | Giant foxtail plant response rating ([14]; Preemergence, Rate 500 g/ha)
5: Plant response rating, Morningglory [2, 17] | Plant response rating, Blackgrass [4, 17] | S. Flatsedge plant response rating [5, 25] | Rape plant response rating ([10]; Preemergence, Rate 250 g/ha) | Rape plant response rating ([10]; Preemergence, Rate 500 g/ha) | Plant response rating, Redroot pigweed [13, 18] | B. signalgrass plant response rating (0 to 10 scale, 0 is no effect, 10 is complete control) ([16]; Preemergence, Rate 125 g/ha) | B. signalgrass plant response rating [16, 20] | B. signalgrass plant response rating [16, 21]
9: Blackgrass plant response rating [4, 21] | Plant response rating, Blackgrass [4, 19] | Plant response rating, S. Flatsedge [5, 29] | Plant response rating, Barnyardgrass [9, 29] | Plant response rating, Crabgrass [12, 18] | Crabgrass plant response rating (0 to 10 scale) ([12]; Preemergence, Rate 125 g/ha) | Crabgrass plant response rating ([12]; Preemergence, Rate 250 g/ha) | Plant response rating, Giant foxtail [14, 19]
4: Blackgrass plant response rating (0 to 10 scale) ([4]; Preemergence, Rate 125 g/ha) | Plant response rating, Barnyardgrass [9, 24] | Plant response rating, Rape [10, 19] | Plant response rating, Giant foxtail [14, 17] | Wild oats plant response rating (0 to 10 scale) ([15]; Preemergence, Rate 125 g/ha)
6: Corn plant response rating ([1]; Preemergence, Rate 500 g/ha) | Sugarbeets plant response rating ([6]; Preemergence, Rate 500 g/ha) | Wild oats plant response rating ([15]; Preemergence, Rate 250 g/ha)
1: Plant response rating, Sugarbeets [6, 17] | Rape plant response rating (0 to 10 scale) ([10]; Preemergence, Rate 125 g/ha) | Plant response rating, B. signalgrass [16, 18]
0: Plant response rating, Corn [1, 17] | Plant response rating, Corn [1, 18] | Corn plant response rating (0 to 10 scale) ([1]; Preemergence, Rate 125 g/ha) | Corn plant response rating ([1]; Rate 62 g/ha, Postemergence) | Plant response rating, Corn [1, 19] | Plant response rating, Morningglory [2, 18] | Morningglory plant response rating (0 to 10 scale) ([2]; Preemergence, Rate 125 g/ha) | Morningglory plant response rating ([2]; Preemergence, Rate 250 g/ha) | Morningglory plant response rating ([2]; Preemergence, Rate 500 g/ha) | Morningglory plant response rating ([2]; Rate 62 g/ha, Postemergence) | Plant response rating, Nutsedge [3, 17] | Plant response rating, Nutsedge [3, 18] | Nutsedge plant response rating (0 to 10 scale) ([3]; Preemergence, Rate 125 g/ha) | Nutsedge plant response rating ([3]; Preemergence, Rate 250 g/ha) | Nutsedge plant response rating ([3]; Preemergence, Rate 500 g/ha) | Nutsedge plant response rating ([3]; Rate 62 g/ha, Postemergence) | Plant response rating, Nutsedge [3, 19] | Plant response rating, S. Flatsedge (0 to 10 scale, 0 is no effect, 10 is complete control) [5, 26] | S. Flatsedge plant response rating [5, 27] | S. Flatsedge plant response rating [5, 28] | S. Flatsedge plant response rating [5, 30] | Plant response rating, Sugarbeets [6, 18] | Sugarbeets plant response rating (0 to 10 scale) ([6]; Preemergence, Rate 125 g/ha) | Sugarbeets plant response rating ([6]; Rate 62 g/ha, Postemergence) | Plant response rating, Bedstraw ([7]; Rate 62 g/ha, scale 0 to 10 (0 no effect, 10 complete control)) | Bedstraw plant response rating (0 to 10 scale) ([7]; Rate 125 g/ha) | Bedstraw plant response rating ([7]; Rate 250 g/ha) | Bedstraw plant response rating ([7]; Rate 500 g/ha) | Plant response rating, Rice [8, 24] | Rice plant response rating [8, 25] | Plant response rating, Rice (0 to 10 scale, 0 is no effect, 10 is complete control) [8, 26] | Rice plant response rating [8, 27] | Rice plant response rating [8, 28] | Rice plant response rating [8, 30] | Barnyardgrass plant response rating [9, 25] | Plant response rating, Barnyardgrass (0 to 10 scale, 0 is no effect, 10 is complete control) [9, 26] | Barnyardgrass plant response rating [9, 27] | Barnyardgrass plant response rating [9, 28] | Barnyardgrass plant response rating [9, 30] | Plant response rating, Rape [10, 17] | Plant response rating, Rape [10, 18] | Rape plant response rating ([10]; Rate 62 g/ha, Postemergence) | Plant response rating, Wheat [11, 17] | Plant response rating, Wheat [11, 18] | Wheat plant response rating (0 to 10 scale) ([11]; Preemergence, Rate 125 g/ha) | Wheat plant response rating ([11]; Preemergence, Rate 250 g/ha) | Wheat plant response rating ([11]; Rate 62 g/ha, Postemergence) | Plant response rating, Wheat [11, 19] | Crabgrass plant response rating ([12]; Rate 62 g/ha, Postemergence) | Giant foxtail plant response rating ([14]; Rate 62 g/ha, Postemergence) | Plant response rating, Wild oats [15, 17] | Plant response rating, Wild oats [15, 18] | Wild oats plant response rating ([15]; Rate 62 g/ha, Postemergence) | Plant response rating, B. signalgrass [16, 17] | B. signalgrass plant response rating [16, 22] | Plant response rating, B. signalgrass [16, 23]
